The assay concerns the target Prothrombin (Homo sapiens) (UniProt P00734). Description: Tested for thrombin inhibitory activity by fibrinogen dependent thrombin assay; Inactive.

The source made the active and inactive calls. No cut-off for these calls is given here.

Regarding `Cc1cn([C@H]2C[C@@H]3OP(=O)(O)OC[C@H]4O[C@@H](n5cnc6c(O)nc(N)nc65)C[C@@H]4OP(=O)(O)OC[C@H]4O[C@@H](C[C@@H]4OP(=O)(O)OC(C)C)n4cc(c(=O)[nH]c4=O)COCOC[C@H]3O2)c(=O)[nH]c1=O`, the outcome was inactive.
